Our source for the EC50 values is US8088806B2 (Achillion Pharmaceuticals, Inc., priority 2005, dated 2012).

The assay has as its system HCV replicon. The assay is described as follows: Replicon based assay of HCV replication inhibition (NPT ELISA). Particulars: Hepatitis C virus, replicon based assay of HCV replication inhibition; Table II; read-out: Activity. Type of assay: cell-based, Hepatitis C virus. The essentials:
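NPT (neomycin phosphotransferase) content, proportional to replicon replication, quantified by capture ELISA on day four. Before that, replicon-bearing Huh-7 cells in G418-free screening medium were exposed three days at 37° C to compound, typically six doses from 10 to 0.03 micromolar, with equal DMSO across wells.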
On the technique in general: A replicon is a self-replicating genome or part of one, used to study replication in cells.
Regarding `CCCCCCCCOc1ccc(Nc2nc(CN3CCN(C4CCCCCC4)CC3)cs2)cc1` [compound 314, 4-((4-cycloheptylpiperazin-1-yl)methyl)-N-(4-(octyloxy)phenyl)thiazol-2-amine], the EC50 is less than 1 µM.
Turning to `CCCCCCCCOc1ccc(Nc2nc(CN3CCC(C(N)=O)CC3)cs2)cc1` [compound 315, 1-((2-(4-(octyloxy)phenylamino)thia-zol-4-yl)methyl)piperidine-4-carboxammide], the EC50 fell in the range of 1 to 10 µM.
In the case of `CCCCCCCCOc1ccc(Nc2nc(CN3CCOCC3)cs2)cc1` [compound 316, 4-(morpholinomethyl)-N-(4-(octyloxy)phenyl)thiazol-2-amine], the EC50 lay within 1 to 10 µM.
As to `CCCCCCCCOc1ccc(Nc2nc(CN3CCC(N(C)C)C3)cs2)cc1` (stereo not shown) [compound 317, 4-((3-(dimethylamino)pyrrolidin-1-yl)methyl)-N-(4-(octyloxy)phenyl)thiazol-2-amine], the EC50 is less than 1 µM.
Under `CCCCCCCCOc1ccc(Nc2nc(CN3CCC(O)C3)cs2)cc1` (stereo not shown) [compound 318, 1-((2-(4-(octyloxy)phenylamino)thia-zol-4-yl)methyl)pyrrolidin-3-ol] stands less than 1 µM.
Turning to `CCCCCCCCOc1ccc(Nc2nc(CN3CCC(C(=O)OCC)CC3)cs2)cc1` [compound 319, ethyl 1-((2-(4-(octyloxy)phenylamino)thia-zol-4-yl)methyl)piperidine-4-carboxylate], the EC50 was in the range of 1 to 10 µM.
For `CCCCCCCCOc1ccc(Nc2nc(CN3C[C@H](O)CC3C(=O)OC)cs2)cc1` (stereo partly drawn) [compound 320, (4R)-methyl 4-hydroxy-1-((2-(4-(octyloxy)pheenylamino)thia-zol-4-yl)methyl)pyrrolidine-2-carboxylate], the EC50 is less than 1 µM.
The same measure for `CCCCCCCCOc1ccc(Nc2nc(CN3CCC(O)CC3)cs2)cc1` [compound 321, 1-((2-(4-(octyloxy)phenylamino)thia-zol-4-yl)methyl)piperidin-4-ol]: 1 to 10 µM; for `CCCCCCCCOc1ccc(Nc2nc(CN3CCC(CO)CC3)cs2)cc1` [compound 322, (1-((2-(4-(octyloxy)phenylamino)thia-zol-4-yl)methyl)piperidin-4-yl)methanol]: 1 to 10 µM; for `CCCCCCCCOc1ccc(Nc2nc(CN3CCCC(C(=O)O)C3)cs2)cc1` (stereo not shown) [compound 323, 1-((2-(4-(octyloxy)phenylamino)thia-zol-4-yl)methyl)piperidine-3-carboxylic acid]: 1 to 10 µM.
Under `CCCCCCCCOc1ccc(Nc2nc(CN3CCC(C)CC3)cs2)cc1` [compound 324, 4-((4-methylpiperidin-1-yl)methyl)-N-(4-(octyloxy)phenyl)thiazol-2-amine] stands 1 to 10 µM.
As to `CCCCCCCCOc1ccc(Nc2nc(CN3CCCC(C)C3)cs2)cc1` (stereo not shown) [compound 325, 4-((3-methylpiperidin-1-yl)methyl)-N-(4-(octyloxy)phenyl)thiazol-2-amine], the EC50 is 1 to 10 µM.
For `CCCCCCCCOc1ccc(Nc2nc(CN3C(C)CCCC3C)cs2)cc1` (stereo not shown) [compound 326, 4-((2,6-dimethylpiperidin-1-yl)methyl)-N-(4-(octyloxy)phenyl)thiazol-2-amine], the EC50 is 1 to 10 µM.
Under `CCCCCCCCOc1ccc(Nc2nc(-c3ccccc3)cs2)cc1` [compound 327, N-(4-(octyloxy)phenyl)-4-phenylthiazol-2-amine] stands less than 1 µM; under `CCCCCCCCOc1ccc(Nc2nc(-c3ccc(F)cc3)cs2)cc1` [compound 328, 4-(4-fluorophenyl)-N-(4-(octyloxy)phenyl)thiazol-2-amine], less than 1 µM.
The same measure for `CCCCCCCCOc1ccc(Nc2nc(-c3ccc(Cl)c(Cl)c3)cs2)cc1` [compound 329, 4-(3,4-ddichlorophenyl)-N-(4-(octyloxy)phenyl)thiazol-2-amine]: 1 to 10 µM; for `CCCCCCCCOc1ccc(Nc2nc(-c3ccc(F)cc3F)cs2)cc1` [compound 330, 4-(2,4-difluorophenyl)-N-(4-(octyloxy)phenyl)thiazol-2-amine]: 1 to 10 µM.
Under `CCCCCCCCOc1ccc(Nc2nc(C3=NC(=O)NC3)cs2)cc1` [compound 331, 4-(2-(4-(octyloxy)phenylamino)thia-zol-4-yl)-1H-imidazol-2(5H)-one] stands 1 to 10 µM; under `CCCCCCCCOc1ccc(Nc2nc(-c3csc(-c4ccccc4)n3)cs2)cc1` [compound 332, N-(4-(octyloxy)phenyl)-4-(2-phenylthiazol-4-yl)thiazol-2-amine], 1 to 10 µM; under `COc1ccc(-c2nc(Nc3cccc(C(F)(F)F)c3)sc2-c2ccc(OC)cc2)cc1` [compound 333, 4,5-bis(4-methoxyphenyl)-N-(3-(trifluoromethyl)phenyl)thia-zol-2-amine], 1 to 10 µM.
For `CCOC(=O)c1ccc(Nc2nc(-c3ccc(OC)cc3)c(-c3ccc(OC)cc3)s2)cc1` [compound 334, ethyl 4-(4,5-bis(4-methoxyphenyl)thiazol-2-ylamino)benzoate], the EC50 was in the range of 1 to 10 µM.
For the compound `COc1ccc(-c2nc(NC(=O)c3ccccc3)sc2-c2ccc(OC)cc2)cc1` [compound 335, N-(4,5-bis(4-methoxyphenyl)thiazol-2-yl)benzamide], the EC50 lay in the range of 1 to 10 µM.
The same measure for `COc1ccc(CNc2nc(-c3ccc(OC)cc3)c(-c3ccc(OC)cc3)s2)cc1` [compound 336, N-(4-methoxybenzyl)-4,5-bis(4-methoxypheenyl)thiazol-2-amine]: greater than 10 µM; for `CCOC(=O)c1ccc(Nc2nc(-c3ccc(OCC(=O)O)cc3)c(C)s2)cc1` [compound 337, 2-(4-(2-(4-(ethoxycarbonyl)phenylamino)-5-methylthiazol-4-yl)phenoxy)acetic acid]: greater than 10 µM; for `Cc1sc(Nc2cccc(C(F)(F)F)c2)nc1-c1ccc(OCC(=O)O)cc1` [compound 338, 2-(4-(5-methyl-2-(3-(trifluoromthyl)phenylamino)thiazol-4-yl)phenoxy)acetic acid]: greater than 10 µM.
Under `Cc1sc(NC(=O)c2ccccc2)nc1-c1ccc(OCC(=O)O)cc1` [compound 340, 2-(4-(2-benzamido-5-methylthiazol-4-yl)phenoxy)acetic acid] stands greater than 10 µM; under `COc1ccc(CNc2nc(-c3ccc(OCC(=O)O)cc3)c(C)s2)cc1` [compound 341, 2-(4-(2-(4-methoxybenzylamino)-5-methylthiazol-4-yl)phenoxy)acetic acid], greater than 10 µM; under `CCOC(=O)c1ccc(Nc2nc(-c3ccc(CC(=O)O)cc3)c(C)s2)cc1` [compound 342, 2-(4-(2-(4-(ethoxycarbonyl)phenylamino)-5-methylthiazol-4-yl)phenyl)acetic acid], greater than 10 µM.
Under `Cc1sc(Nc2cccc(C(F)(F)F)c2)nc1-c1ccc(CC(=O)O)cc1` [compound 343, 2-(4-(5-methyl-2-(3-(trifluoromethyl)phenylamino)thiazol-4-yl)phenyl)acetic acid] stands greater than 10 µM.
Take `Cc1sc(Nc2cccnc2)nc1-c1ccc(CC(=O)O)cc1` [compound 344, 2-(4-(5-methyl-2-(pyridin-3-ylamino)thiazol-4-yl)phenyl)acetic acid]: the EC50 is greater than 10 µM.
Under `Cc1sc(NC(=O)c2ccccc2)nc1-c1ccc(CC(=O)O)cc1` [compound 345, 2-(4-(2-benzamido-5-methylthiazol-4-yl)phenyl)acetic acid] stands greater than 10 µM.
Under `COc1ccc(CNc2nc(-c3ccc(CC(=O)O)cc3)c(C)s2)cc1` [compound 346, 2-(4-(2-(4-methoxybenzylamino)-5-methylthiazol-4-yl)phenyl)acetic acid] stands greater than 10 µM; under `CCOC(=O)c1ccc(Nc2nc(-c3ccc(F)cc3)c(C)s2)cc1` [compound 347, ethyl 4-(4-(4-fluorophenyl)-5-mthylthiazol-2-ylamino)benzoate], greater than 10 µM.
For `Cc1sc(Nc2cccc(C(F)(F)F)c2)nc1-c1ccc(F)cc1` [compound 348, 4-(4-fluorophenyl)-5-methyl-N-(3-(trifluoromethyl)phenyl)thia-zol-2-amine], the EC50 lay within 1 to 10 µM.
For `Cc1sc(Nc2cccnc2)nc1-c1ccc(F)cc1` [compound 349, N-(4-(4-fluorophenyl)-5-methylthiazol-2-yl)pyridin-3-amine], the EC50 is greater than 10 µM.
The same measure for `Cc1sc(NC(=O)c2ccccc2)nc1-c1ccc(F)cc1` [compound 350, N-(4-(4-fluorophenyl)-5-methylthiazol-2-yl)benzamide]: greater than 10 µM; for `COc1ccc(CNc2nc(-c3ccc(F)cc3)c(C)s2)cc1` [compound 351, N-(4-methoxybenzyl)-4-(4-fluorophenyl)-5-methylthiazol-2-amine]: greater than 10 µM.
Take `CCCCCCCOc1ccc(Nc2nc(-c3ccccc3)c(-c3ccccc3)s2)cc1` [compound 352, N-(4-(heptyloxy)phenyl)-4,5-diphenylthiazol-2-amine]: the EC50 is greater than 10 µM.
In the case of `CCCCCCCCOc1ccc(Nc2nc(-c3ccc(OC)cc3)c(-c3ccc(OC)cc3)s2)cc1` [compound 353, 4,5-bis(4-methoxyphenyl)-N-(4-(octyloxy)phenyl)thiazol-2-amine], the EC50 lay within 1 to 10 µM.
The same measure for `CCCCCCCOc1ccc(Nc2nc(-c3ccc(OC)cc3)c(-c3ccc(OC)cc3)s2)cc1` [compound 355, N-(4-(heptyloxy)phenyl)-4,5-bis(4-methoxyphenyl)thiazol-2-amine]: greater than 10 µM; for `COc1ccc(-c2nc(Nc3ccc(F)cc3)sc2-c2ccc(OC)cc2)cc1` [compound 356, N-(4-fluorophenyl)-4,5-bis(4-methoxyphenyl)thiazol-2-amine]: 1 to 10 µM; for `COc1ccc(-c2nc(Nc3cc(OC)ccc3OC)sc2-c2ccc(OC)cc2)cc1` [compound 357, N-(2,5-dimthoxyphenyl)-4,5-bis(4-methoxyphenyl)thiazol-2-amine]: greater than 10 µM.
The same measure for `CCCCCOc1ccc(Nc2nc(-c3cccs3)cs2)cc1C(F)(F)F` [compound 358, N-(4-(pentyloxy)-3-(trifluoromethyl)phenyl)-4-(thiophen-2-yl)thiazol-2-amine]: less than 1 µM.
